Laboratory results taken from publication PMC9482650, “Quantitative fragmentomics allow affinity mapping of interactomes” (Nature Communications, 2022).
Ends that are not written are not given here. * marks the point of attachment. Biotin = O=C1N[C@H]2[C@H](CS[C@H]2CCCCC(=O)*)N1; ttds = NCCCOCCOCCOCCCNC(=O)CCC(=O)*

Legend:
PDZ-proteins = assay: Estimated PPI affinity, additive association constants of all PDZ sites; type: binding, human;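 note: calculated estimate, not directly measured: domain-motif affinities from holdup assays, association constants summed over all PDZ sites, one motif bound at a time, weak interactions ignored, giving a lower limit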
Description: We used the previously generated domain-motif interactome, consisting of the composite affinities (i.e., taken from the most reliable holdup method; see above) to estimate affinities of PPIs. We assumed that a multidomain PDZ-protein can only interact with a single PBM at the same time (Eq. (4)):4 PDZ+PBM⇌(PDZ−PBM)site1,or(PDZ−PBM)site2,or(PDZ−PBM)siten
Using this approximation, as proposed by others before[45], the association constant of a multi-site interaction is the sum of the association constants of all sites (Eq. (5)):5 Ka,additive=[PDZ−PBM]site1+[PDZ−PBM]site2+…+[PDZ−PBM]siten/[PDZ]×[PBM]=∑Ka,site
The contribution of unmeasurable weak interactions was also neglected in the calculations.

SCRIB = assay: PBM-AP-MS from Jurkat extract; type: binding, Homo sapiens; details: prey SCRIB, PBM peptide bait
Description: (§1) For PBM-AP-MS experiments, 30 μl streptavidin resin was mixed with biotin or peptide at 50–60 μM concentration in 6–6.5 resin volume for 60 min to achieve resin saturation. For PDZ-AP-MS experiments, 30 μl streptavidin resin was mixed with biotinylated MBP or MBP-PDZ at 40-50 μM concentration in >1000× resin volume for 60 min to achieve resin saturation. After saturation, resins were washed a single time (ten resin volume, holdup buffer), and were depleted with biotin (1 mM biotin, 5–10 resin volume, 10 min). Finally, resins were washed two times. 0.5 ml 2 mg/ml cell lysate was added to the dry resin (1 mg total input) and were incubated at 4 °C for 2 h. Then, the beads were washed three times with 10 resin volume buffer containing: 50 mM TRIS pH 8.5, 150 mM NaCl, 1% TritonX-100, 10× complete EDTA-free protease inhibitor cocktail, 2 mM EDTA, 1 mM TCEP. Then, the beads were washed two times with ten resin volume buffer containing: 50 mM TRIS pH 8.5, 150 mM NaCl, 1 mM TCEP. Finally, captured protein was eluted from the resin in two steps and the eluted fractions were pooled. For each elution the beads were incubated for 30 min with three resin volume buffer containing: 20 mM TRIS pH8.5, 100 mM NaCl, 500 μM TCEP, 8 M Urea. Between each step, the beads were separated by mild centrifugation and the supernatant was removed by gentle pipetting.
(§2) Proteins were identified by database searching using SequestHT (Thermo Fisher Scientific) with Proteome Discoverer 2.4 software (PD2.4, Thermo Fisher Scientific) on human FASTA database downloaded from SwissProt (reviewed, release 2020_11_27, 20304 entries, https://www.uniprot.org/). Precursor and fragment mass tolerances were set at 7 ppm and 0.6 Da respectively, and up to two missed cleavages were allowed. Oxidation (M, +15.995 Da) was set as variable modification, and Carbamidomethylation (C, +57.021 Da) as fixed modification. Peptides and proteins were filtered with a false discovery rate at 1%. Label-free quantification was based on the extracted ion chromatography intensity of the peptides. All samples were measured in technical triplicates. The measured extracted ion chromatogram (XIC) intensities were normalized based on median intensities of the entire dataset to correct minor loading differences. For statistical tests and enrichment calculations, not detectable intensity values were treated with an imputation method, where the missing values were replaced by random values similar to the 10% of the lowest intensity values present in the entire dataset. Unpaired two-tailed T-test, assuming equal variance, were performed on obtained log2 XIC intensities. The detection threshold for enriched proteins in AP-MS experiments were analyzed above twofold enrichment with <0.01 P value. Then, proteins with PDZ-domains or PBMs were extracted from the list of enriched proteins. In case only a specific isoform of the detected protein contains a PBM, the identified peptide fragments were manually checked to check which isoform(s) were most likely detected. All raw LC-MS/MS data (from 165 runs) have been deposited to the ProteomeXchange via the PRIDE database with identifier PXD027743.

MAGI1 = assay: PBM-AP-MS from Jurkat extract; type: binding, Homo sapiens; details: prey MAGI1, PBM peptide bait
Description: as §1, §2

DLG1 = assay: PBM-AP-MS from Jurkat extract; type: binding, Homo sapiens; details: prey DLG1, PBM peptide bait
Description: as §1, §2

LIN7C = assay: PBM-AP-MS from Jurkat extract; type: binding, Homo sapiens; details: prey LIN7C, PBM peptide bait
Description: as §1, §2

CASK = assay: PBM-AP-MS from Jurkat extract; type: binding, Homo sapiens; details: prey CASK, PBM peptide bait
Description: as §1, §2

Row | Substance | final additive pKd (PDZ-proteins; PDZ-protein AHNAK) | final additive pKd (PDZ-proteins; PDZ-protein CASK) | final additive pKd (PDZ-proteins; PDZ-protein DLG1) | final additive pKd (PDZ-proteins; PDZ-protein InaDl) | final additive pKd (PDZ-proteins; PDZ-protein LAP2) | final additive pKd (PDZ-proteins; PDZ-protein LIN7C) | final additive pKd (PDZ-proteins; PDZ-protein LNX2) | final additive pKd (PDZ-proteins; PDZ-protein MAGI3) | final additive pKd (PDZ-proteins; PDZ-protein MPP5) | final additive pKd (PDZ-proteins; PDZ-protein MPP6) | final additive pKd (PDZ-proteins; PDZ-protein MPP7) | final additive pKd (PDZ-proteins; PDZ-protein NHERF2) | final additive pKd (PDZ-proteins; PDZ-protein PDLIM2) | final additive pKd (PDZ-proteins; PDZ-protein PDLIM5) | final additive pKd (PDZ-proteins; PDZ-protein PDLIM7) | final additive pKd (PDZ-proteins; PDZ-protein PSMD9) | final additive pKd (PDZ-proteins; PDZ-protein SCRIB) | final additive pKd (PDZ-proteins; PDZ-protein SNTB1) | final additive pKd (PDZ-proteins; PDZ-protein SNX27) | final additive pKd (PDZ-proteins; PDZ-protein SYNJ2BP) | further results
1 | HPV18E6 | 3.5 | 3.5 | 5.948 | 3.7336 | 3.615 | 4.171 | 3.17 | 5.558 | 3.5 | 3.5 | 3.5 | 3.5 | 3.5 | 3.5 | 3.5 | 3.5 | 5.064 | 5.229 | 4.554 | 5.349 | final additive pKd (PDZ-proteins; PDZ-protein SNTB2): 4.58; final additive pKd (PDZ-proteins; PDZ-protein TX1B3): 4.665; Enrichment values compared to biotin controls (SCRIB): 288.2; Enrichment values compared to biotin controls (MAGI1): 134.3; Enrichment values compared to biotin controls (DLG1): 519.3; Enrichment values compared to biotin controls (LIN7C): 68.0; Enrichment values compared to biotin controls (CASK): 15.2
2 | HPV30E6 ({Biotin-ttds}-RHTTSTETAV) | 3.716 | 3.5 | 5.729 | 4.166 | 4.458 | 4.187 | 3.771 | 5.357 | 3.5 | 3.5 | 3.5 | 3.5 | 3.5 | 3.5 | 3.5 | 3.5 | 5.522 | 5.102 | 5.636 | 5.355 | final additive pKd (PDZ-proteins; PDZ-protein SNTB2): 4.675; final additive pKd (PDZ-proteins; PDZ-protein TX1B3): 4.653; Enrichment values compared to biotin controls (SCRIB): 266.4; Enrichment values compared to biotin controls (MAGI1): 25.1; Enrichment values compared to biotin controls (DLG1): 488.6; Enrichment values compared to biotin controls (LIN7C): 26.9; Enrichment values compared to biotin controls (CASK): 11.1
3 | HPV35E6 ({Biotin-ttds}-SKPTRRETEV) | 3.5 | 3.5 | 5.779 | 3.5 | 3.6933 | 3.759 | 3.5 | 5.407 | 3.5 | 3.5 | 3.5 | 3.774 | 3.5 | 3.5 | 3.5 | 3.5 | 5.233 | 4.679 | 4.662 | 5.6853 | final additive pKd (PDZ-proteins; PDZ-protein TX1B3): 4.927; Enrichment values compared to biotin controls (SCRIB): 314.5; Enrichment values compared to biotin controls (MAGI1): 54.3; Enrichment values compared to biotin controls (DLG1): 596.6; Enrichment values compared to biotin controls (LIN7C): 34.7; Enrichment values compared to biotin controls (CASK): 12.7
